Data published in PubChem BioAssay (NCI).
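Growth conditions: 96-well plates. Treatment: test compound, 48 hours, 5 concentrations. Analysis: linear interpolation between bracketing concentrations; unreached endpoints set to highest concentration. TGI: total growth inhibition.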

Assays:
Test in all cases: NCI tumour cell line growth inhibition, 48 h
OVCAR-4 ovarian = test system: OVCAR-4 ovarian
SF-539 CNS = test system: SF-539 CNS
NCI-H460 lung = test system: NCI-H460 lung
MOLT-4 leukemia = test system: MOLT-4 leukemia
HS 578T breast = test system: HS 578T breast
IGROV1 ovarian = test system: IGROV1 ovarian
U251 CNS = test system: U251 CNS
CAKI-1 renal = test system: CAKI-1 renal
SF-295 CNS = test system: SF-295 CNS
SR leukemia = test system: SR leukemia

Row | SMILES | TGI (OVCAR-4 ovarian) [µM] | TGI (SF-539 CNS) [µM] | TGI (NCI-H460 lung) [µM] | TGI (MOLT-4 leukemia) [µM] | TGI (HS 578T breast) [µM] | TGI (IGROV1 ovarian) [µM] | TGI (U251 CNS) [µM] | TGI (CAKI-1 renal) [µM] | TGI (SF-295 CNS) [µM] | TGI (SR leukemia) [µM]
1 | C[C@H]1[C@H]2[C@H]3CC[C@@H]4[C@@]5(C)CC[C@H](O)C(C)(C)[C@@H]5CC[C@@]4(C)[C@]3(C)C[C@H](O)[C@@]2(C)C[C@H]2O[C@]21C | > 100 | 39 | 40.1 | > 100 | 61 | 71.1 | 33.7 | 69.8 | 37.4 | 
2 | O=C(N/N=C(\c1ccccc1)c1ccccn1)NC1CCCCC1 | > 100 |  | > 100 | > 100 | > 100 | > 100 | > 100 | > 100 | > 100 | > 100
3 | Cc1ccc(-c2c(C#N)c(-c3ccc(C)cc3)n(NS(=O)(=O)c3ccccc3)c(=O)c2C#N)cc1 | > 100 | 61.2 | > 100 | 64.7 | > 100 | > 100 | > 100 | > 100 | > 100 | 
4 | CN1CCc2c([nH]c3ccccc23)C1 | > 100 |  | > 100 | > 100 | > 100 | > 100 | > 100 | > 100 | > 100 | > 100
5 | Cc1ccc2c(c1)C(=S)N1CSCC1c1nncn1-2 (configuration not stated) | > 100 |  | > 100 | > 100 | > 100 | > 100 | > 100 | > 100 | > 100 | > 100
6 | C=CCCON(C(=O)OC(C)(C)C)C(C)(C)C |  | > 100 | > 100 | > 100 | > 100 | > 100 | > 100 | > 100 | > 100 | 
7 | O=C(O)C(O)C(O)C(O)C(O)c1nc2ccccc2s1 (configuration not stated) | 50.2 | 34.1 | 31.6 |  | 60.2 | 24.7 | 29.5 | 33.5 | 31.9 | 
8 | c1ccc(N=C(N2CCCC2)N(CCN2CCCC2)c2ccccc2)cc1 | > 100 |  | 75.8 | > 100 | > 100 | > 100 | > 100 | > 100 | 35.6 | > 100
9 | CC1(C)[C@@H](Cn2ccc(=O)[nH]c2=O)CC[C@@]1(C)CO | > 100 |  |  |  | > 100 |  | > 100 | > 100 | > 100 | 
10 | CCOC(=O)CCC(NC(=O)Cc1ccc(Nc2nc3cc(F)c(F)cc3nc2C(=O)OCC)cc1)C(=O)OCC (configuration not stated) | > 100 | > 100 | > 100 | > 100 | > 100 |  | > 100 | > 100 | > 100 | 55.9
11 | BrC1=C(Br)C2(SCCS2)[C@H]2C[C@@H]1c1ccccc12 | > 100 | > 100 | > 100 | > 100 |  | > 100 | > 100 | > 100 | > 100 | 75
12 | CCO/C(O)=C(/C(=N)N1CCOCC1)C(=O)Nc1ccc(F)cc1 | > 100 |  | > 100 | > 100 | > 100 | > 100 | > 100 | > 100 | > 100 | 
13 | COc1cc(Nc2nc3ccccc3nc2C(=O)O)cc(OC)c1OC |  | > 100 | > 100 | > 100 | 92 | > 100 | > 100 | 76.4 | > 100 | > 100
14 | Cn1c(=O)c2c(ncn2CCNC(CO)C(O)c2ccc([N+](=O)[O-])cc2)n(C)c1=O (configuration not stated) | > 100 | > 100 | > 100 | > 100 |  |  | > 100 | > 100 | > 100 | > 100
15 | O=C1C2SC34c5c2c2ccccc2n5CCC3CCCN14 (configuration not stated) | > 100 | > 100 |  | > 100 | > 100 | > 100 | > 100 | > 100 | > 100 | > 100
16 | CO/N=C(\C)c1ccc(Nc2nc3ccccc3c3occc23)cc1 |  | 27.5 | 34.1 | 53.1 | 30.7 | 31.7 | 35.6 | 32 | 31.5 | 58.6
17 | CO[C@@]12C[C@@H](C)C3=CCC(C)=C3CC1=C(C)C(=O)O2 | > 100 |  | > 100 | > 100 | > 100 | > 100 | > 100 | > 100 | > 100 | > 100
18 | CC1(C)/C(=N\NC(N)=O)C2CCC1C2 (configuration not stated) | > 100 |  | > 100 | > 100 | > 100 | > 100 | > 100 | > 100 | > 100 | > 100

Row | SMILES | TGI (OVCAR-4 ovarian) [µM] | TGI (SF-539 CNS) [µM] | TGI (NCI-H460 lung) [µM] | TGI (MOLT-4 leukemia) [µM] | TGI (HS 578T breast) [µM] | TGI (IGROV1 ovarian) [µM] | TGI (U251 CNS) [µM] | TGI (CAKI-1 renal) [µM] | TGI (SF-295 CNS) [µM] | TGI (SR leukemia) [µM]
19 | O=C1COc2cccnc2N1CCCCO |  | > 100 | > 100 | > 100 | > 100 | > 100 | > 100 | > 100 | > 100 | > 100
20 | CCOC(=O)Nc1[nH]cc(-c2ccccc2)c1C#N | > 100 |  |  | > 100 | > 100 | > 100 | > 100 |  | > 100 | > 100
21 | O=C1C=CC(=O)c2c1ccc1c3ccccc3n(CCCCCn3c4ccccc4c4ccc5c(c43)C(=O)C=CC5=O)c21 |  | 33.9 | > 100 | 5.11 | > 78.7 | 20.6 | 54 | 13.7 | > 100 | 6.22
22 | NC(N)=NS(=O)(=O)c1ccc(NNc2c3ccccc3nc3c(C(=O)Nc4ccc(S(=O)(=O)Nc5ncccn5)cc4)cccc23)cc1 | > 100 | > 100 | > 100 | > 100 |  | 44.6 | > 100 | > 100 | > 100 | 
23 | COc1cc(C2C3C=CC=C4CC=CC(=C43)C3CCC(=O)N32)cc(OC)c1OC (configuration not stated) |  | > 100 | > 100 | > 100 |  | > 100 | > 100 |  | > 100 | > 100
24 | Cc1ccc(S(=O)(=O)c2[nH]cc(/C(=C\C3CCCCC3)[N+](=O)[O-])c2C2CCCCC2)cc1 | 1.28 | 2.46 | 2.99 | 0.94 |  | 1.13 | 4.56 | 0.531 | > 20.6 | 0.891
25 | CC(=O)Nc1ccc(N=Nc2c(O)c(S(=O)(=O)O)cc3cc(S(=O)(=O)O)ccc23)cc1 | > 100 |  |  |  | > 100 | > 100 | > 100 | > 100 | > 100 | 
26 | O=C1Nc2cccc(Cl)c2/C1=C\c1c(Cl)nc2n1CCS2 |  | > 100 | > 100 | > 100 | > 100 | > 100 | > 100 | > 100 | > 100 | > 100
27 | Cc1n(Cc2ccccc2)c2c([n+]1C)C(=O)c1ccccc1C2=O | 0.812 | 0.179 | 0.5 |  | 2.14 | 0.127 | 0.131 | 11.3 | 0.554 | > 45.5
28 | Nc1ccc2c(c1)C(=O)N1CCC[C@H]1C(=O)N2 | > 100 | > 100 | > 100 | > 100 |  | > 100 | > 100 | > 100 | > 100 | > 100
29 | CCCNC(=O)NNC(=O)c1c[nH]c2nc(C)ccc2c1=O | > 100 |  | > 100 | > 100 | > 100 | > 100 | > 100 | > 100 | > 100 | 
30 | COc1cc2c(cc1OC)C(CC1=C(c3ccccc3)CN3CCc4cc(OC)c(OC)cc4C3C1)NCC2 (configuration not stated) | 29.8 |  | 37.9 | 29.5 |  | 32.8 | 29.8 | 44.6 | 31.1 | 
31 | N#Cc1n[nH]n(-c2ccc(Br)cc2)c1=O | > 100 | > 100 |  |  | > 100 | > 100 | > 100 | > 100 | > 100 | 
32 | CCn1c(-c2ccccc2)cs/c1=N\C(P(=O)(O)O)P(=O)(O)O |  | > 100 | > 100 | > 100 | > 100 | > 100 | > 100 | > 100 | > 100 | > 100
33 | CCCC(=O)NC(NC1CCCCC1)(C(=O)OCC)C(F)(F)F (configuration not stated) | > 100 | > 100 | > 100 | > 100 | > 100 | > 100 | > 100 |  | > 100 | > 100
34 | CCOC1(OCC)C2C=CC1C(COS(=O)(=O)c1ccc(C)cc1)C2COS(=O)(=O)c1ccc(C)cc1 (configuration not stated) | 79.2 | > 100 | > 100 | 99.3 | > 100 | > 100 | > 100 |  | > 100 | 58.6
35 | O=c1oc2ccccc2cc1-c1cc2ccccn2c1 | > 100 |  | > 100 | > 100 | > 100 | > 100 | > 100 | > 100 | > 100 | 
36 | O=C1/C(=C/c2ccc(Br)s2)NC(=S)N1c1ccccc1 | > 100 |  | > 100 | > 100 | > 100 | > 100 | > 100 | > 100 | > 100 | > 100
